Results taken from patent publication US20220409562A1, “Treatment or Prevention of Ischaemic Stroke Reperfusion Injury” (Cambridge Enterprise Limited, priority 2019, published 2022).
Entries after “also recorded” stand apart in the source; their conditions may differ.

What was measured:
[1] = Malonate uptake in vivo (tissue levels after tail vein bolus, LC-MS/MS); design: species or system C57/BL6 mice; conditions: 160 mg/kg tail vein bolus, 5 min after injection, normoxic mouse
Protocol: To see if this uptake also occurred in vivo, we injected disodium malonate into a normoxic mouse by a bolus in the tail vein and measured the malonate levels in tissues 5 min later. C57/BL6 mice were tail vein injected with DSM (160 mg/kg) before cervical dislocation 5 min after the injection, tissues harvested and clamp frozen in liquid nitrogen. For tissue analysis, tissues were weighed and extracted in 25 μl/mg extraction buffer containing internal standard and homogenised in a Precellys 24 homogeniser. Homogenates were centrifuged to remove insoluble debris. Extracts were analysed by LC-MS/MS and the levels of malonate assessed by interpolation of a malonate standard curve.

[2] = system: C2Cl2 mouse myoblast cells; assay: Malonate uptake in vitro (LC-MS of cell extracts); type: in vitro ADME; conditions: for malonate concentration within the cell: allowing for a cell volume of 260 mg protein/ml
Protocol: We first explored whether malonate could be taken up by cells in culture. C2Cl2 mouse myoblast cells were plated at 300,000 cells/well and adhered overnight. The next day, cells were treated with either DSM (a—0.25 mM; b—0.25, 1 or 5 mM) or untreated for 0 to 240 min before cooling plates on ice and rapidly washing 4 times with ice-cold PBS and placed on dry ice. Cells were extracted for mass spectrometry with 500 μl extraction buffer (50% methanol, 30% acetonitrile and 20% water) with 1 nmol ^13C-malonate internal standard centrifuged to remove insoluble debris.

[3] = system: transient middle cerebral artery occlusion (MCAO) in C57Bl6J mice; assay: Transient middle cerebral artery occlusion (MCAO) model, infarct volume and cerebral blood flow; type: in vivo; conditions: given i.v. for 20 minutes starting just prior to reperfusion; 45 min ischemia, 2 h reperfusion; vs saline/vehicle control
Text: Male C57Bl6J mice, 6-8 weeks old, were anesthetized with 3% isoflurane and anaesthesia was maintained on 1.5-2% isoflurane. A Doppler flowmetry probe (Perimed, Sweden) was attached to the skull to continuously monitor the cerebral blood flow. Left common carotid artery (CCA) and left external carotid artery were exposed and permanently ligated. Left […] was clamped temporarily. Next, an incision was made on CCA and a filament with a silicon tip (0.22 mm in diameter, 2-3 mm in length, Doccol, USA) was inserted and guided forward into internal carotid artery until it reached middle cerebral artery (MCA). The occlusion of MCA was confirmed by seeing at least 70% drop in cerebral blood flow. […]
At the end of reperfusion, mice were sacrificed by cervical dislocation; brain was collected and sliced at 2 mm thicknesses and stained with 2% triphenyltetrazolium chloride in saline at 37 C for 10-15 min. […] The healthy tissue area (red-stained) in both hemispheres was measured using ImageJ. The infarct volume % was calculated by first calculating the volume of healthy tissue in each hemisphere (Σarea of each slice×thickness of slice), then by the formula: ((volume of healthy tissue in uninjured hemisphere −volume of healthy tissue in injured hemisphere) ÷volume of healthy tissue in uninjured hemisphere)×100. […]

ischemia = conditions: administered prior to and throughout ischemia; cited from earlier work

Row | Structure (SMILES) | tissue levels of malonate, brain [1] | tissue levels of malonate, heart [1] | tissue levels of malonate, kidney [1] | tissue levels of malonate, liver [1] | intracellular malonate levels ([2]; 5 mM DSM, after 5 min (FIG. 4b)) [nmol/mg protein] | malonate uptake into cells ([2]; 0.25, 1 or 5 mM, 0 to 240 min (FIG. 4b)) | malonate concentration within the cell ([2]; after 5 min incubated with 250 μM) | malonate concentration within the cell ([2]; after 5 min incubated with 5 mM) | intracellular malonate levels ([2]; incubated with 250 μM disodium malonate (FIG. 4a)) | necrotic brain infarct volume [3] | protective effect (ischemia)
1 | O=C([O-])CC(=O)[O-].[Na+].[Na+] [DSM, disodium malonate] | uptake | significant amounts | particularly high | significant amounts | ~2 | both dose and time-dependent | about 50 | ~500 | 0.2-0.4 nmol/mg protein | decreased | –
2 | COC(=O)CC(=O)OC [DMM, dimethyl malonate] | – | – | – | – | – | – | – | – | – | no significant difference; also recorded: not effective | protective
